Measured values reported in patent US8952024B2, “Herbicidal pyrimidone derivatives” (E I du Pont de Nemours and Company, priority 2009, dated 2015).

Legend:
Assay type in all cases: in vivo
[1] = test system: barnyardgrass (Echinochloa crus-galli); test: Test A pre-/postemergence plant response; settings: for Barnyardgrass plant response rating: visual injury, 0 to 100 scale (0 no effect, 100 complete control), approx. ten days
Outline: (§1)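 Formulated test chemicals (non-phytotoxic solvent, surfactant) were sprayed onto soil right after planting and simultaneously onto young plants at one to two leaves, 2 to 10 cm tall. Plants stayed in the greenhouse about ten days; injury was then visually scored against untreated controls, from 0 (no effect) to 100 (complete control).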

corn (Zea mays) = test: Test A pre-/postemergence plant response; settings: for Corn plant response rating: visual injury, 0 to 100 scale (0 no effect, 100 complete control), approx. ten days
Outline: as §1

[2] = test system: giant foxtail (Setaria faberii); test: Test A pre-/postemergence plant response; settings: for Foxtail, Giant plant response rating: visual injury, 0 to 100 scale (0 no effect, 100 complete control), approx. ten days
Outline: as §1

[3] = test system: large crabgrass (Digitaria sanguinalis); test: Test A pre-/postemergence plant response; settings: for Crabgrass, Large plant response rating: visual injury, 0 to 100 scale (0 no effect, 100 complete control), approx. ten days
Outline: as §1

[4] = test system: morningglory (Ipomoea spp.); test: Test A pre-/postemergence plant response; settings: for Morningglory plant response rating: visual injury, 0 to 100 scale (0 no effect, 100 complete control), approx. ten days
Outline: as §1

[5] = test system: pigweed (Amaranthus retroflexus); test: Test A pre-/postemergence plant response; settings: for Pigweed plant response rating: visual injury, 0 to 100 scale (0 no effect, 100 complete control), approx. ten days
Outline: as §1

[6] = test system: velvetleaf (Abutilon theophrasti); test: Test A pre-/postemergence plant response; settings: for Velvetleaf plant response rating: visual injury, 0 to 100 scale (0 no effect, 100 complete control), approx. ten days
Outline: as §1

[7] = test system: wheat (Triticum aestivum); test: Test A pre-/postemergence plant response; settings: for Wheat plant response rating: visual injury, 0 to 100 scale (0 no effect, 100 complete control), approx. ten days
Outline: as §1

[8] = test system: winter barley (Hordeum vulgare); test: Test B postemergence plant response; settings: Postemergence
Outline: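 Plants at the 1- to 4-leaf stage (2 to 18 cm tall), grown in pots of peat moss/vermiculite medium with wetting agent and starter nutrients, received postemergence applications of test chemicals. After 13 to 15 days in a greenhouse, injury was rated visually against untreated controls on a 0 (no effect) to 100 (complete control) scale.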

[9] = test system: barnyardgrass (Echinochloa crus-galli); test: Test B flooded paddy test; settings: for Plant response rating, Flood, Barnyardgrass: 250 g ai/ha, flooded paddy test, visual rating on 0 to 100 scale (0 no effect, 100 complete control) after 13 to 15 days; for Plant response rating, Barnyardgrass: Flood (flooded paddy test), 13 to 15 days; for Barnyardgrass plant response rating: Flood, 31 g ai/ha, scale 0 to 100 (0 no effect, 100 complete control)
Outline: (§2)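 Ratings are visual, 0–100 (100 = complete control), taken versus untreated controls 13 to 15 days after treatment in the greenhouse. Compound went straight into paddy water held 3 cm above soil, applied to 2-leaf-stage plants of four species.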

[10] = test system: ducksalad (Heteranthera limosa); test: Test B flooded paddy test; settings: for Plant response rating, Flood, Ducksalad: 250 g ai/ha, flooded paddy test, visual rating on 0 to 100 scale (0 no effect, 100 complete control) after 13 to 15 days; for Plant response rating, Ducksalad: Flood (flooded paddy test), 13 to 15 days
Outline: as §2

rice (Oryza sativa) = test: Test B flooded paddy test; settings: for Plant response rating, Flood, Rice: 250 g ai/ha, flooded paddy test, visual rating on 0 to 100 scale (0 no effect, 100 complete control) after 13 to 15 days; for Plant response rating, Rice: Flood (flooded paddy test), 13 to 15 days; for Rice plant response rating: Flood, 31 g ai/ha, scale 0 to 100 (0 no effect, 100 complete control)
Outline: as §2

[11] = test system: umbrella sedge (Cyperus difformis); test: Test B flooded paddy test; settings: for Plant response rating, Flood, Sedge, Umbrella: 250 g ai/ha, flooded paddy test, visual rating on 0 to 100 scale (0 no effect, 100 complete control) after 13 to 15 days; for Plant response rating, Sedge, Umbrella: Flood (flooded paddy test), 13 to 15 days; for Sedge, Umbrella plant response rating: Flood, 31 g ai/ha, scale 0 to 100 (0 no effect, 100 complete control)
Outline: as §2

[12] = Postemergence, 125 g ai/ha, 0 to 100 scale where 0 is no effect and 100 is complete control
[13] = Preemergence, 125 g ai/ha, 0 to 100 scale, 0 = no effect, 100 = complete control
[14] = Preemergence, 500 g ai/ha, 0 to 100 scale, 0 = no effect, 100 = complete control
[15] = 31 g ai/ha, 0 to 100 scale (0 no effect, 100 complete control)
[16] = 62 g ai/ha, scale 0 to 100 (0 no effect, 100 complete control)
[17] = 125 g ai/ha, scale 0 to 100 (0 no effect, 100 complete control)
[18] = 250 g ai/ha, scale 0 to 100 (0 no effect, 100 complete control), 13 to 15 days
[19] = 62 g ai/ha, scale of 0 to 100 where 0 is no effect and 100 is complete control
[20] = 125 g ai/ha, scale 0 to 100, 0 is no effect, 100 is complete control

CCCn1c(-c2ccsc2)ncc(C(=O)C2=C(O)C3CCC(C3)C2=O)c1=O (stereo not drawn) [Compound 227]
Plant response rating, Barnyardgrass [1, 12]: 90 | Barnyardgrass plant response rating ([1]; Postemergence, 500 g ai/ha): 90 | Plant response rating, Barnyardgrass [1, 13]: 50 | Plant response rating, Barnyardgrass [1, 14]: 100 | Plant response rating, Corn (corn (Zea mays); [12]): 10 | Corn plant response rating (corn (Zea mays); Postemergence, 500 g ai/ha): 60 | Plant response rating, Corn (corn (Zea mays); [13]): 0 | Plant response rating, Corn (corn (Zea mays); [14]): 10 | Plant response rating, Foxtail, Giant [2, 12]: 90 | Foxtail, Giant plant response rating ([2]; Postemergence, 500 g ai/ha): 90 | Plant response rating, Foxtail, Giant [2, 13]: 40 | Plant response rating, Foxtail, Giant [2, 14]: 80 | Plant response rating, Crabgrass, Large [3, 12]: 90 | Crabgrass, Large plant response rating ([3]; Postemergence, 500 g ai/ha): 100 | Plant response rating, Crabgrass, Large [3, 13]: 90 | Plant response rating, Crabgrass, Large [3, 14]: 100 | Plant response rating, Morningglory [4, 12]: 100 | Morningglory plant response rating ([4]; Postemergence, 500 g ai/ha): 100 | Plant response rating, Morningglory [4, 13]: 50 | Plant response rating, Morningglory [4, 14]: 80 | Plant response rating, Pigweed [5, 12]: 100 | Pigweed plant response rating ([5]; Postemergence, 500 g ai/ha): 100 | Plant response rating, Pigweed [5, 13]: 80 | Plant response rating, Pigweed [5, 14]: 100 | Plant response rating, Velvetleaf [6, 12]: 100 | Velvetleaf plant response rating ([6]; Postemergence, 500 g ai/ha): 100 | Plant response rating, Velvetleaf [6, 13]: 90 | Plant response rating, Velvetleaf [6, 14]: 100 | Plant response rating, Wheat [7, 12]: 0 | Wheat plant response rating ([7]; Postemergence, 500 g ai/ha): 0 | Plant response rating, Wheat [7, 13]: 0 | Plant response rating, Wheat [7, 14]: 10 | Plant response rating, Barley [8, 15]: 0 | Plant response rating, Barley [8, 16]: 5 | Plant response rating, Barley [8, 17]: 5 | Plant response rating, Barley [8, 18]: 30 | Plant response rating, Flood, Barnyardgrass [9]: 60 | Plant response rating, Barnyardgrass [9, 19]: 40 | Plant response rating, Barnyardgrass [9, 20]: 50 | Barnyardgrass plant response rating [9]: 20 | Plant response rating, Flood, Ducksalad [10]: 80 | Plant response rating, Ducksalad [10, 20]: 75 | Plant response rating, Flood, Rice (rice (Oryza sativa)): 55 | Plant response rating, Rice (rice (Oryza sativa); [19]): 30 | Plant response rating, Rice (rice (Oryza sativa); [20]): 45 | Rice plant response rating (rice (Oryza sativa)): 20 | Plant response rating, Flood, Sedge, Umbrella [11]: 85 | Plant response rating, Sedge, Umbrella [11, 19]: 85 | Plant response rating, Sedge, Umbrella [11, 20]: 85 | Sedge, Umbrella plant response rating [11]: 80

COCCn1c(-c2ccsc2)ncc(C(=O)C2=C(O)C3CCC(C3)C2=O)c1=O (stereo not drawn) [Compound 228]
Plant response rating, Barnyardgrass [1, 12]: 90 | Barnyardgrass plant response rating ([1]; Postemergence, 500 g ai/ha): 90 | Plant response rating, Barnyardgrass [1, 13]: 40 | Plant response rating, Barnyardgrass [1, 14]: 100 | Plant response rating, Corn (corn (Zea mays); [12]): 50 | Corn plant response rating (corn (Zea mays); Postemergence, 500 g ai/ha): 90 | Plant response rating, Corn (corn (Zea mays); [13]): 0 | Plant response rating, Corn (corn (Zea mays); [14]): 50 | Plant response rating, Foxtail, Giant [2, 12]: 90 | Foxtail, Giant plant response rating ([2]; Postemergence, 500 g ai/ha): 90 | Plant response rating, Foxtail, Giant [2, 13]: 50 | Plant response rating, Foxtail, Giant [2, 14]: 90 | Plant response rating, Crabgrass, Large [3, 12]: 90 | Crabgrass, Large plant response rating ([3]; Postemergence, 500 g ai/ha): 100 | Plant response rating, Crabgrass, Large [3, 13]: 100 | Plant response rating, Crabgrass, Large [3, 14]: 100 | Plant response rating, Morningglory [4, 12]: 100 | Morningglory plant response rating ([4]; Postemergence, 500 g ai/ha): 100 | Plant response rating, Morningglory [4, 13]: 70 | Plant response rating, Morningglory [4, 14]: 80 | Plant response rating, Pigweed [5, 12]: 100 | Pigweed plant response rating ([5]; Postemergence, 500 g ai/ha): 100 | Plant response rating, Pigweed [5, 13]: 100 | Plant response rating, Pigweed [5, 14]: 100 | Plant response rating, Velvetleaf [6, 12]: 100 | Velvetleaf plant response rating ([6]; Postemergence, 500 g ai/ha): 100 | Plant response rating, Velvetleaf [6, 13]: 100 | Plant response rating, Velvetleaf [6, 14]: 100 | Plant response rating, Wheat [7, 12]: 0 | Wheat plant response rating ([7]; Postemergence, 500 g ai/ha): 20 | Plant response rating, Wheat [7, 13]: 0 | Plant response rating, Wheat [7, 14]: 0 | Plant response rating, Barley [8, 15]: 0 | Plant response rating, Barley [8, 16]: 5 | Plant response rating, Barley [8, 17]: 40 | Plant response rating, Barley [8, 18]: 40 | Plant response rating, Flood, Barnyardgrass [9]: 80 | Plant response rating, Barnyardgrass [9, 19]: 40 | Plant response rating, Barnyardgrass [9, 20]: 75 | Barnyardgrass plant response rating [9]: 15 | Plant response rating, Flood, Ducksalad [10]: 80 | Plant response rating, Ducksalad [10, 19]: 50 | Plant response rating, Ducksalad [10, 20]: 75 | Ducksalad plant response rating ([10]; Flood, 31 g ai/ha, scale 0 to 100 (0 no effect, 100 complete control)): 40 | Plant response rating, Flood, Rice (rice (Oryza sativa)): 60 | Plant response rating, Rice (rice (Oryza sativa); [19]): 20 | Plant response rating, Rice (rice (Oryza sativa); [20]): 35 | Rice plant response rating (rice (Oryza sativa)): 0 | Plant response rating, Flood, Sedge, Umbrella [11]: 85 | Plant response rating, Sedge, Umbrella [11, 19]: 75 | Plant response rating, Sedge, Umbrella [11, 20]: 75 | Sedge, Umbrella plant response rating [11]: 65
